Holding throughout (assay): NCI-60 cell line screen, 48 h
Assay [1] relates to RXF 393 renal.
The test system of assay [2] is NCI-H226 lung.
For assay [3], the system named is U251 CNS.
Assay [4] relates to MALME-3M melanoma.
The subject of assay [5] is HCC-2998 colon.
The test system of assay [6] is SNB-75 CNS.
Assay [7] deals with CAKI-1 renal.
The test system of assay [8] is A549 NSCLC.
The test system of assay [9] is SF-539 CNS.
Assay [10] deals with HOP-92 NSCLC.

In PubChem BioAssay (NCI) one finds TGI and GI50 data, which are given here for 16 compounds.

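These data come from cells grown in 96-well plates and exposed to compound for 48 hours at five concentrations. At the GI50, growth is halved. TGI: concentration producing complete growth inhibition.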

Consider `CCOP(=O)(Nc1ccc2oc(=O)c3ccccc3c2c1)OCC`, for which the TGI in assay [1], in assay [2], in assay [3], in assay [4], in [5] and in assay [6] was greater than 100 µM in each case. Besides, the TGI in assay [7], in assay [8], in assay [9] and in assay [10] was greater than 100 µM each time.

On to `COc1cc(/C=C(\C#N)C(N)=C(C#N)C#N)cc(O)c1O`, for which the TGI in assay [1], in assay [2], in [3], in assay [4], in assay [5] and in assay [6] was greater than 100 µM each time. For the same compound, the TGI in assay [7], in assay [8], in assay [9] and in assay [10] was greater than 100 µM throughout.

Turning to `C[N+](C)(C)CC1CCCC(C[N+](C)(C)C)C1O` (stereo not drawn), the TGI in [1], in assay [2], in [3], in assay [4], in assay [5] and in [6] was greater than 100 µM each time. Further, the TGI in [7], in assay [8], in assay [9] and in [10] was greater than 100 µM in each case.

On to `COC(=O)/C(=N/NC(N)=O)C(C(=O)OC)C(=O)C(=O)Nc1ccc(Cl)cc1` (stereo not drawn), for which the TGI in assay [1], in [2], in assay [3], in assay [4], in assay [5] and in [6] was greater than 100 µM throughout. Moreover, the TGI in assay [7], in assay [8], in [9] and in assay [10] was greater than 100 µM throughout.

`O=C(c1ccc(Cl)cc1)C1OC12C(=O)Nc1ccccc12` (stereo not drawn): the TGI in assay [1] was found to be 29.6 µM; in assay [2], 40.7 µM; in [3] it was 32 µM; in [4], 18.8 µM; in assay [5] it was 34.1 µM; in [6], 32 µM. The TGI in assay [7] was found to be 20.6 µM; in [8] it was 58.6 µM; in assay [9], 30.6 µM; in assay [10] it was 30 µM.

For the compound `CCOc1ccc(C(CN2CCOCC2)C(C)=O)cc1OC` (stereo not drawn), the TGI in [1] turned out to be 41.1 µM; in [2] it was 32.4 µM; in assay [3], 31.9 µM; in assay [4] it was 37.5 µM; in [5], 32.3 µM; in assay [6], 32.6 µM. Moreover, the TGI was determined as 23.4 µM in assay [7], 51.7 µM in [8], 32.8 µM in [9] and 35.7 µM in assay [10].

`O=C(Nc1ccccc1C(=O)N/N=C(\c1ccccc1)c1ccccn1)c1ccc(F)cc1`: the GI50 is 0.576 µM in [1]; 0.366 µM in assay [2]; 0.297 µM in [3]; 0.767 µM in assay [4]; 0.321 µM in assay [5]; 4.81 µM in [6]. Moreover, the GI50 in assay [7] was 0.42 µM; in [8], 0.451 µM; in assay [9] it was 0.298 µM; in assay [10], 1.42 µM. The TGI was 9.17 µM in assay [1]; greater than 100 µM in assay [3]; greater than 100 µM in assay [4]; greater than 100 µM in assay [5]; greater than 100 µM in assay [6]; greater than 100 µM in assay [7]. Also, the TGI in assay [8] and in assay [10] was greater than 100 µM each time.

With `Nc1ccc2c(c1)c(N)nn2C(=O)Nc1ccc(Cc2ccccc2)cc1`, the GI50 in [1] was 21.4 µM; in assay [2], 16.1 µM; in [3], 6.53 µM; in [4], 18 µM; in assay [5], 4.17 µM; in [6], 17.4 µM. The GI50 in assay [7] is 4.3 µM; in assay [8] it was 6.58 µM; in assay [9] it was 8.7 µM; in assay [10], 10.4 µM. The TGI in [1] turned out to be 43.9 µM; in assay [2], 38.3 µM; in assay [3], 20.9 µM; in assay [4], 89.8 µM; in assay [5], 14.8 µM; in [6], 31.5 µM. Moreover, the TGI in assay [7] was determined as 26.8 µM; in [8] it was 57.1 µM; in [9] it was 22.1 µM; in assay [10], 24.4 µM.

Regarding `Cc1cc(Cl)ccc1NS(=O)(=O)c1ccc(-c2cnc(C3CC3)o2)cc1`, the GI50 in assay [1] was 0.268 µM; in [2], 1.04 µM; in assay [3] it was 0.384 µM; in assay [4], 0.567 µM; in assay [5], 0.463 µM; in [6], 0.153 µM. Besides, the GI50 in [7] is 0.127 µM; in assay [8], 0.372 µM; in assay [9], 0.215 µM; in assay [10], 1.05 µM. The TGI in assay [1] came to 17.7 µM; in assay [2], 16.5 µM; in assay [3], 15.7 µM; in [4], 26.7 µM; in assay [5] it was 12 µM; in assay [6], 0.667 µM. The TGI in assay [7] was found to be 17.6 µM; in assay [8] it was 17 µM; in assay [9], 2.51 µM; in [10], 13 µM.

Take `Oc1ccc(Cl)cc1Cc1cc(Cl)ccc1O`: the GI50 in [1] is 2.38 µM; in assay [2], 3.28 µM; in [3], 2.32 µM; in [4], 2.55 µM; in assay [5], 2.36 µM; in assay [6], 4.09 µM. The GI50 in assay [7] is 2.8 µM; in assay [8], 2.95 µM; in assay [9] it was 3.8 µM; in assay [10], 0.801 µM. For the same compound, the TGI in assay [1] is 8.04 µM; in assay [2], 14.4 µM; in [3] it was 11.6 µM; in assay [4], 6.35 µM; in assay [5], 5.78 µM; in assay [6], 24.2 µM. In addition, the TGI in assay [7] was found to be 9.38 µM; in assay [8], 11.1 µM; in assay [9], 13.8 µM; in assay [10] it was 3.58 µM.

In the case of `CC(=O)Oc1ccc2c(c1)CC[C@@H]1C2CC[C@]2(C)C(=O)NC(=O)CC12` (stereo partly drawn), the TGI in [1], in [2], in assay [3], in assay [4], in [5] and in [6] was greater than 100 µM in each case. Moreover, the TGI in assay [7], in [8], in assay [9] and in assay [10] was greater than 100 µM throughout.

For the compound `Cc1ccc(C(C)C)cc1NC(=O)Nc1ccc([N+](=O)[O-])cc1`, the GI50 is 2.81 µM in assay [1]; 1.77 µM in assay [2]; 2.25 µM in [3]; 2.02 µM in assay [4]; 2.09 µM in assay [5]; 2.52 µM in assay [6]. Moreover, the GI50 in assay [7] is 2.1 µM; in [8], 2.63 µM; in [9] it was 2.57 µM; in assay [10], 2.42 µM. Further, the TGI in assay [1] turned out to be 13.5 µM; in assay [2], 6.14 µM; in assay [3] it was 6.46 µM; in assay [4], 6.48 µM; in assay [5], 5.44 µM; in assay [6], 10.5 µM. Besides, the TGI in [7] is 5.62 µM; in [8], 11.1 µM; in [9] it was 7.89 µM; in [10] it was 8.89 µM.

For the compound `COc1cnc2cc(C(=O)O)c3ccccc3c2c1`, the TGI in [1], in [2], in assay [3], in [4], in [5] and in assay [6] was greater than 100 µM throughout. The TGI in [7], in assay [8], in assay [9] and in assay [10] was greater than 100 µM throughout.

On to `COc1cc2cc3c4c(cc(OC)c(OC)c4c2cc1OC)CCN3C(=O)CCC(=O)NCCCN(C)C`, for which the TGI was greater than 100 µM in [1]; greater than 100 µM in assay [2]; greater than 100 µM in [3]; greater than 100 µM in assay [4]; greater than 100 µM in assay [5]; 53.2 µM in [6]. The TGI in assay [7] is greater than 100 µM; in [8], greater than 100 µM; in [9] it was 59.3 µM; in assay [10], 64.6 µM.

Regarding `Oc1[nH]c2cc(Cl)ccc2c1/C=c1/ccc2c(c1)N=C(c1cc(F)cc(F)c1)N=2`, the GI50 in assay [1] is 2.08 µM; in [2] it was 5.78 µM; in [3] it was 1.06 µM; in [4] it was 6.06 µM; in assay [5], 4.86 µM; in assay [6] it was 1.6 µM. Moreover, the GI50 in assay [7] was 1.73 µM; in assay [8], 1.64 µM; in assay [9] it was 2.04 µM; in assay [10] it was 0.741 µM. The TGI in assay [1] came to 6.27 µM; in assay [2], 31 µM; in assay [3], 2.89 µM; in [4] it was 27.4 µM; in assay [5], 17.2 µM; in assay [6], 6.07 µM. For the same compound, the TGI in assay [7] came to 16.6 µM; in assay [8] it was 5.44 µM; in assay [9], 5.96 µM; in assay [10], 8.16 µM.

With `COc1ccc(S(=O)(=O)N(C)CC(=O)O)cc1`, the TGI in [1], in assay [2], in [3], in assay [4], in assay [5] and in [6] was greater than 100 µM in each case. In addition, the TGI in assay [7], in [8], in assay [9] and in assay [10] was greater than 100 µM each time.
